Test results: PMC12419160 (The Journal of Cell Biology, 2025)

Biological target: T1, PILS-Nir1 (6xHis-tagged LNS2 domain of Nir1) (Homo sapiens, UniProt Q9BZ71)
T1 construct: gene PITPNM3; LNS2 (PILS) domain, residues 609-912 in Methods but 604-912 in Results; TEV-cleavable N-terminal 6xHis tag (pTHT), codon-optimised, expressed in E. coli BL21(DE3) RIPL
T1 sequence (Q9BZ71 609-912): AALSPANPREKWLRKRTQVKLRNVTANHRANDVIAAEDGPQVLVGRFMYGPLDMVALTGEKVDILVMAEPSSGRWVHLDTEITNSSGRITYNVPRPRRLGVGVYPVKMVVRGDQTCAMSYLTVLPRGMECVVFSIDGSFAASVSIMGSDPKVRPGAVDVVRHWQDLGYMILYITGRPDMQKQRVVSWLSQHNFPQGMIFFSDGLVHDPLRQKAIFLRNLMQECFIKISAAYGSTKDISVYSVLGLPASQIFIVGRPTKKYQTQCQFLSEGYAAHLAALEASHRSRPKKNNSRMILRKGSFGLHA
Experiment: liposome cosedimentation, SDS-PAGE densitometry
Format: binding
Conditions: 20 mol% PA / 80 mol% PC liposomes, 20 mM Tris pH 7.5, 150 mM NaCl; one-site fit with background; 95% C.I. 110.1–789.9 µM

**Q.** With phosphatidic acid [PA] as the substance, how does the Kd read?
**A.** 422 µM
